Numbered stars: 1 amine (or outer) side, 2 acyl side, 3 side chain; on linkers, the order of the positions; unused ones are H or OH. Bridge positions count the residues as written; N and C are the ends. Square brackets hold non-standard residues; d marks the D form. Peptide text beside a SMILES is read from it. * marks the point of attachment. C20 diacid = O=C(O)CCCCCCCCCCCCCCCCCCC(=O)*; γGlu = O=C(O)[C@H](CCC(=O)[*:2])N[*:1]; Hyp = O=C(O)[C@@H]1C[C@@H](O)CN1
Target: T1, hAMY3 receptor (Homo sapiens, UniProt O60896+P30988)
T1 sequence (P30988 25-474): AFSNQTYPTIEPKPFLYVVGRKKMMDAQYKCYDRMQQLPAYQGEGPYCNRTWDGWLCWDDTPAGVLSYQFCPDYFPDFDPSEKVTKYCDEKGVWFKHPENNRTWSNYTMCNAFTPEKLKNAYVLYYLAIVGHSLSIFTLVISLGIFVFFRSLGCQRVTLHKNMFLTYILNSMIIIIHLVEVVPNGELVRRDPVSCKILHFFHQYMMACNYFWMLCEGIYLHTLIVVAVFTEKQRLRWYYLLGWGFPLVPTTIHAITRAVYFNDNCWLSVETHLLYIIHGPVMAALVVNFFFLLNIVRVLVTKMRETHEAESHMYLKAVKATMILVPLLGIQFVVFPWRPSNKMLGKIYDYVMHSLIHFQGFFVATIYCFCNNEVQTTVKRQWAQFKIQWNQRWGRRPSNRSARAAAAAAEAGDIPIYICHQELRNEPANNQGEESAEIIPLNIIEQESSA
T1 sequence (O60896 24-148 partner): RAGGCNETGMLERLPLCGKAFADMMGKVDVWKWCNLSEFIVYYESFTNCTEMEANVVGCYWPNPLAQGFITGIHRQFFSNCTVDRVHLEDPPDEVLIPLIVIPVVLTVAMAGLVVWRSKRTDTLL
Test: cAMP assay for in vitro receptor activation, hAMY3-R
Assay type: cell-based
Settings: cAMP assay, hAMY3 receptor; read-out: hAMY3R EC50
In short: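 Receptor activation was measured as cAMP accumulation in a monoclonal cell line stably overexpressing hAMY3. Stimulation with graded doses lasted 30 min at room temperature in the presence of 0.5 mM IBMX, with human amylin as positive control.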

EC50 | SMILES
16 pM | CC[C@H](C)[C@H](NC(=O)[C@H](CCC(N)=O)NC(=O)[C@H](Cc1c[nH]cn1)NC(=O)[C@H](C)NC(=O)[C@H](CC(C)C)NC(=O)[C@H](CCCNC(=N)N)NC(=O)[C@H](CCC(N)=O)NC(=O)[C@@H](NC(=O)[C@@H](NC(=O)[C@@H]1CSSC[C@H](NC(=O)[C@H](CCCCN)NC(=O)CC[C@H](NC(=O)CCCCCCCCCCCCCCCCCCC(=O)O)C(=O)O)C(=O)N[C@@H](CC(N)=O)C(=O)N[C@@H]([C@@H](C)O)C(=O)N[C@@H](C)C(=O)N[C@@H]([C@@H](C)O)C(=O)N1)[C@@H](C)O)C(C)C)C(=O)N[C@@H](C)C(=O)N[C@@H](CCC(N)=O)C(=O)N[C@@H](Cc1ccccc1)C(=O)N[C@H](C(=O)N[C@@H](CC(=O)O)C(=O)N[C@@H](CCCCN)C(=O)N[C@@H](CC(=O)O)C(=O)N[C@@H](CCCCN)C(=O)N[C@@H](CC(=O)O)C(=O)N1CCC[C@H]1C(=O)N[C@H](C(=O)N[C@@H](C)C(=O)N1CCC[C@H]1C(=O)N1CCC[C@H]1C(=O)N[C@H](C(=O)N[C@@H](CC(N)=O)C(=O)N[C@H](C(=O)NCC(=O)N[C@@H](CO)C(=O)N[C@@H](CC(N)=O)C(=O)NCC(=O)N1C[C@H](O)C[C@H]1C(N)=O)C(C)C)[C@@H](C)O)C(C)C)[C@@H](C)O [compound 92] ({C20 diacid-γGlu}-KCNTATCTVQRLAHQIAQFTDKDKDPVAPPTNVGSNG[Hyp]-NH2; disulfide 2-7)
31 pM | CC[C@H](C)[C@H](NC(=O)[C@H](CCC(N)=O)NC(=O)[C@H](Cc1c[nH]cn1)NC(=O)[C@H](C)NC(=O)[C@H](CC(C)C)NC(=O)[C@H](CCCNC(=N)N)NC(=O)[C@H](CCC(N)=O)NC(=O)[C@@H](NC(=O)[C@@H](NC(=O)[C@@H]1CSSC[C@H](NC(=O)CNC(=O)CC[C@H](NC(=O)CCCCCCCCCCCCCCCCCCC(=O)O)C(=O)O)C(=O)N[C@@H](CCCNC(=N)N)C(=O)N[C@@H](Cc2ccccc2)C(=O)N[C@@H](C)C(=O)N[C@@H]([C@@H](C)O)C(=O)N1)[C@@H](C)O)C(C)C)C(=O)N[C@@H](Cc1ccc(O)cc1)C(=O)N[C@@H](CCC(N)=O)C(=O)N[C@@H](Cc1ccccc1)C(=O)N[C@H](C(=O)N[C@@H](CC(=O)O)C(=O)N[C@@H](CCCCN)C(=O)N[C@@H](CC(=O)O)C(=O)N[C@@H](CCCCN)C(=O)N[C@@H](CC(=O)O)C(=O)N[C@@H](CC(N)=O)C(=O)N[C@H](C(=O)N[C@@H](C)C(=O)N1CCC[C@H]1C(=O)N[C@@H](CCCNC(=N)N)C(=O)N[C@H](C(=O)N[C@@H](CCCCN)C(=O)N[C@H](C(=O)NCC(=O)N1CCC[C@H]1C(=O)N[C@@H](CCC(N)=O)C(=O)NCC(=O)N[C@@H](Cc1ccc(O)cc1)C(N)=O)C(C)C)[C@@H](C)O)C(C)C)[C@@H](C)O [compound 380] ({C20 diacid-γGlu}-GCRFATCTVQRLAHQIYQFTDKDKDNVAPRTKVGPQGY-NH2; disulfide 2-7)
6 pM | CC[C@H](C)[C@H](NC(=O)[C@H](CCC(N)=O)NC(=O)[C@H](Cc1c[nH]cn1)NC(=O)[C@H](C)NC(=O)[C@H](CC(C)C)NC(=O)[C@H](CCCNC(=N)N)NC(=O)[C@H](CCC(N)=O)NC(=O)[C@@H](NC(=O)[C@@H](NC(=O)[C@@H]1CSSC[C@H](NC(=O)[C@@H](N)CCCCN)C(=O)N[C@@H](CC(N)=O)C(=O)N[C@@H](Cc2ccccc2)C(=O)N[C@@H](C)C(=O)N[C@@H]([C@@H](C)O)C(=O)N1)[C@@H](C)O)C(C)C)C(=O)N[C@@H](Cc1ccc(O)cc1)C(=O)N[C@@H](CCC(N)=O)C(=O)N[C@@H](Cc1ccccc1)C(=O)N[C@H](C(=O)N[C@@H](CC(=O)O)C(=O)N[C@@H](CCCCN)C(=O)N[C@@H](CC(=O)O)C(=O)N[C@@H](CCCCN)C(=O)N[C@@H](CC(=O)O)C(=O)N[C@@H](CC(N)=O)C(=O)N[C@H](C(=O)N[C@@H](C)C(=O)N1CCC[C@H]1C(=O)N[C@@H](CCCNC(=N)N)C(=O)N[C@H](C(=O)N[C@@H](CCCCN)C(=O)N[C@H](C(=O)NCC(=O)N[C@@H](CO)C(=O)N[C@@H](CC(N)=O)C(=O)NCC(=O)N1C[C@H](O)C[C@H]1C(N)=O)C(C)C)[C@@H](C)O)C(C)C)[C@@H](C)O [compound 3] (H-KCNFATCTVQRLAHQIYQFTDKDKDNVAPRTKVGSNG[Hyp]-NH2; disulfide 2-7)
36 pM | CC[C@H](C)[C@H](NC(=O)[C@H](CCC(N)=O)NC(=O)[C@H](Cc1c[nH]cn1)NC(=O)[C@H](C)NC(=O)[C@H](CC(C)C)NC(=O)[C@H](CCCNC(=N)N)NC(=O)[C@H](CCC(N)=O)NC(=O)[C@@H](NC(=O)[C@@H](NC(=O)[C@@H]1CSSC[C@H](NC(=O)CN)C(=O)N[C@@H](CCCNC(=N)N)C(=O)N[C@@H](Cc2ccccc2)C(=O)NCC(=O)N[C@@H]([C@@H](C)O)C(=O)N1)[C@@H](C)O)C(C)C)C(=O)N[C@@H](Cc1ccc(O)cc1)C(=O)N[C@@H](CCC(N)=O)C(=O)N[C@@H](Cc1ccccc1)C(=O)N[C@H](C(=O)N[C@@H](CC(=O)O)C(=O)N[C@@H](CCCCN)C(=O)N[C@@H](CC(=O)O)C(=O)N[C@@H](CCCCN)C(=O)N[C@@H](CC(=O)O)C(=O)N[C@@H](CC(N)=O)C(=O)N[C@H](C(=O)N[C@@H](C)C(=O)N1CCC[C@H]1C(=O)N[C@@H](CCCNC(=N)N)C(=O)N[C@@H](CO)C(=O)N[C@@H](CCCCN)C(=O)N[C@H](C(=O)N[C@@H](CO)C(=O)N1CCC[C@H]1C(=O)N[C@@H](CC(N)=O)C(=O)NCC(=O)N[C@@H](Cc1ccc(O)cc1)C(N)=O)C(C)C)C(C)C)[C@@H](C)O [compound 384] (H-GCRFGTCTVQRLAHQIYQFTDKDKDNVAPRSKVSPNGY-NH2; disulfide 2-7; N-terminus assumed)
19 pM | CC[C@H](C)[C@H](NC(=O)[C@H](CCC(N)=O)NC(=O)[C@H](Cc1c[nH]cn1)NC(=O)[C@H](C)NC(=O)[C@H](CC(C)C)NC(=O)[C@H](CCCNC(=N)N)NC(=O)[C@H](CCC(N)=O)NC(=O)[C@@H](NC(=O)[C@@H](NC(=O)[C@@H]1CSSC[C@H](NC(=O)CN)C(=O)N[C@@H](CCCNC(=N)N)C(=O)N[C@@H](Cc2ccccc2)C(=O)NCC(=O)N[C@@H]([C@@H](C)O)C(=O)N1)[C@@H](C)O)C(C)C)C(=O)N[C@@H](Cc1ccc(O)cc1)C(=O)N[C@@H](CCC(N)=O)C(=O)N[C@@H](Cc1ccccc1)C(=O)N[C@H](C(=O)N[C@@H](CC(=O)O)C(=O)N[C@@H](CCCCN)C(=O)N[C@@H](CC(=O)O)C(=O)N[C@@H](CCCCN)C(=O)N[C@@H](CC(=O)O)C(=O)N[C@@H](CC(N)=O)C(=O)N[C@H](C(=O)N[C@@H](C)C(=O)N1CCC[C@H]1C(=O)N[C@@H](CCCNC(=N)N)C(=O)N[C@H](C(=O)N[C@@H](CCCCN)C(=O)N[C@H](C(=O)N[C@@H](CO)C(=O)N1CCC[C@H]1C(=O)N[C@@H](CC(N)=O)C(=O)NCC(=O)N[C@@H](Cc1ccc(O)cc1)C(N)=O)[C@@H](C)CC)[C@@H](C)O)C(C)C)[C@@H](C)O [compound 371] (H-GCRFGTCTVQRLAHQIYQFTDKDKDNVAPRTKISPNGY-NH2; disulfide 2-7; N-terminus assumed)
82 pM | CC[C@H](C)[C@H](NC(=O)[C@H](CCCCN)NC(=O)[C@H](CO)NC(=O)[C@H](CCCNC(=N)N)NC(=O)[C@@H]1CCCN1C(=O)[C@H](C)NC(=O)[C@@H](NC(=O)[C@H](CC(N)=O)NC(=O)[C@H](CC(=O)O)NC(=O)[C@H](CCCCN)NC(=O)[C@H](CC(=O)O)NC(=O)[C@H](CCCCN)NC(=O)[C@H](CC(=O)O)NC(=O)[C@@H](NC(=O)[C@H](Cc1ccccc1)NC(=O)[C@H](CCC(N)=O)NC(=O)[C@H](Cc1ccc(O)cc1)NC(=O)[C@@H](NC(=O)[C@H](CCC(N)=O)NC(=O)[C@H](Cc1c[nH]cn1)NC(=O)[C@H](C)NC(=O)[C@H](CC(C)C)NC(=O)[C@H](CCCNC(=N)N)NC(=O)[C@H](CCC(N)=O)NC(=O)[C@@H](NC(=O)[C@@H](NC(=O)[C@@H]1CSSC[C@H](NC(=O)CN)C(=O)N[C@@H](CCCNC(=N)N)C(=O)N[C@@H]([C@@H](C)O)C(=O)NCC(=O)N[C@@H]([C@@H](C)O)C(=O)N1)[C@@H](C)O)C(C)C)[C@@H](C)CC)[C@@H](C)O)C(C)C)C(=O)NCC(=O)N1CCC[C@H]1C(=O)N[C@@H](CCC(N)=O)C(=O)NCC(=O)N1C[C@H](O)C[C@H]1C(N)=O [compound 179] (H-GCRTGTCTVQRLAHQIYQFTDKDKDNVAPRSKIGPQG[Hyp]-NH2; disulfide 2-7)
45 pM | CC[C@H](C)[C@H](NC(=O)[C@H](CCCCN)NC(=O)[C@H](CO)NC(=O)[C@H](CCCNC(=N)N)NC(=O)[C@@H]1CCCN1C(=O)[C@H](C)NC(=O)[C@@H](NC(=O)[C@H](CC(N)=O)NC(=O)[C@H](CC(=O)O)NC(=O)[C@H](CCCCN)NC(=O)[C@H](CC(=O)O)NC(=O)[C@H](CCCCN)NC(=O)[C@H](CC(=O)O)NC(=O)[C@@H](NC(=O)[C@H](Cc1ccccc1)NC(=O)[C@H](CCC(N)=O)NC(=O)[C@@H](NC(=O)[C@H](CC(C)C)NC(=O)[C@H](Cc1ccccc1)NC(=O)[C@H](CC(N)=O)NC(=O)[C@H](C)NC(=O)[C@H](CC(C)C)NC(=O)[C@H](CCCNC(=N)N)NC(=O)[C@H](CCC(N)=O)NC(=O)[C@@H](NC(=O)[C@H](C)NC(=O)[C@@H]1CSSC[C@H](NC(=O)[C@H](CCCCN)NC(=O)CC[C@H](NC(=O)CCCCCCCCCCCCCCCCCCC(=O)O)C(=O)O)C(=O)N[C@@H](CC(N)=O)C(=O)N[C@@H](Cc2ccccc2)C(=O)N[C@@H](C)C(=O)N[C@@H]([C@@H](C)O)C(=O)N1)[C@@H](C)O)C(C)C)[C@@H](C)O)C(C)C)C(=O)NCC(=O)N1CCC[C@H]1C(=O)N[C@@H](CCC(N)=O)C(=O)NCC(=O)N[C@@H](Cc1ccc(O)cc1)C(N)=O [compound 389] ({C20 diacid-γGlu}-KCNFATCATQRLANFLVQFTDKDKDNVAPRSKIGPQGY-NH2; disulfide 2-7)

Reference: patent publication US12139520B2 (priority 2020, dated 2024)
